Results as given in US9303019B2, “Amino-pyrroline derivatives, and use thereof in the prevention and/or treatment of metabolic syndrome” (UNIVERSITE DE STRASBOURG, priority 2012, dated 2016).

Assays:
[1] = test system: SHHF rats; test: Chronic treatment: body weight and food consumption in SHHF rats; assay type: in vivo, rat; settings: 20 mg/kg/d
Procedure: (§1) Male SHHF rats (spontaneously hypertensive, heart failure) aged 12 weeks were used for this study (Charles River breeding centre, L'Arbresle, France).
(§2) Compound 1 was administered in the drinking water for 12 weeks at a dose of 20 mg/kg/d (n=17). Water consumption was regularly measured to adjust the concentration of compound 1. Non-treated control SHHF rats had access to normal water (n=10).
(§3) Body weight, water and food intake were measured every day. After a treatment time of 12 weeks, blood samples were taken. Three days later, arterial pressure and heart rate were recorded and a glucose tolerance test was performed.

[2] = test system: 3T3-L1 adipocytes; test: Secretion of adiponectin by differentiated 3T3-L1 adipocytes (ELISA); assay type: cell-based, murine; settings: 3 μmol/l, 6 h; control 212.6±19.1
Procedure: 3T3-L1 murine preadipocytes were cultured to confluence at 37° C. in DMEM medium containing 4.5 g/litre of D-glucose, 10% FCS and antibiotics. At confluence, differentiation of the 3T3-L1 adipocytes was initiated through the addition over 48 h of a mixture containing 100 μM methyl-isobutylxanthine, 100 nm dexamethasone and 175 nM insulin. The cells were then passaged every 2-3 days in DMEM, 10% FCS and 175 nM insulin. More than 95% of cells had the phenotype of mature adipocytes 10 days after confluence was reached.
To determine the secretion of adiponectin by mature adipocytes, differentiated 3T3-L1 adipocytes (10 days after confluence) were placed in culture in 12-well plates and washed three times with DMEM, then cultured for 6 h in DMEM alone, in the absence or presence of 3 μM of compound 1. In some wells the antagonist selective for the imidazoline receptors I1, efaroxan, was added (100 μM) 30 min before exposure to compound 1.
The culture medium was then recovered, centrifuged for 3 min at 10 000 g to remove cell contaminants, and the supernatant was stored at −80° C. until use. After two washings in cold PBS, the adipocytes were collected in PBS, homogenized and stored at −80° C. An aliquot of adipocyte homogenate was stored for protein determination. The adiponectin was measured using an ELISA kit following the manufacturer's recommendations. The adiponectin concentration was normalized with the cell protein content.

[3] = test system: SHHF rats; test: Chronic treatment: plasma biochemical parameters in SHHF rats; assay type: in vivo, rat; settings: 20 mg/kg/d, 12 weeks
Procedure: as §1, §2, §3
After a treatment time of 12 weeks, blood samples were obtained from the caudal vein of anesthetized rats (2.5% isoflurane, Abbott, Rungis, France) after a fasting time of 18 h.
The blood were centrifuged for 15 minutes at 2000 g and the plasma was frozen to −80° C. until assays of glucose, total cholesterol, HDL and LDL cholesterol and fatty acids. These assays were performed at the following centre: Plateau Technique Biologique des Hôpitaux Universitaires de Strasbourg (Advia 2400, Bayer HealthCare).
Insulin, leptin, adiponectin and glucagon were assayed using ELISA kits (insulin: Mercodia, Uppsala, Sweden; leptin: Yanaihara Institute Inc., Shizuoka, Japan; adiponectin: B-Bridge International, Mountain View, USA; glucagon: Gentaur, Kampenhout, Belgium) following the supplier's recommendations.

[4] = target: I1 receptor (Rattus norvegicus, UniProt Q4G017); test: Competitive binding to [125I]-PIC in membranes of PC12 cells; settings: PC12 cell membranes
Procedure: The PC-12 cells were cultured in 75-cm^2 dishes in DMEM medium (1000 mg/l glucose) supplemented with 10% FBS inactivated by treatment at 56° C., 100 U/ml penicillin and 100 μg/ml streptomycin. When the cells reached confluence (3 to 4 days after the start of culture) they were harvested and passaged via the action of 0.25% trypsin for 2 minutes at 37° C. For the specific binding assays, the medium was removed and the cells stored by freezing to −20° C. until use with the membrane preparation.
The frozen PC12 cells were recovered by scraping in ice-cold Tris-HEPES buffer (5 mM Tris-HEPES, pH 7.7, 0.5 mM EDTA, 0.5 mM EGTA and 0.5 mM MgCl2) and Potter homogenized. After centrifuging at 75,000 g for 20 min, the residue was washed in ice-cold Tris-HEPES buffer then again centrifuged. This last operation was performed twice. […]
The reaction was halted by rapid vacuum filtration through GF/B fibre glass filters treated with 0.3% PEI using filtering equipment of Brandel® type, followed by three rapid washings of the filters using 3 ml of ice-cold 50 mM Tris-HCl buffer, pH 7.4. The radioactivity retained on the dried filters was determined using a Minaxi gamma counter (Packard, Meriden, CT, USA). Non-specific binding was determined by [^125I]PIC binding in the presence of 10 μM PIC and represented about 43% of total radioactivity.

[5] = test system: SHHF rats; test: Chronic treatment: glucose tolerance test (IVGTT) in SHHF rats; assay type: in vivo, rat; settings: 20 mg/kg/d, 12 weeks; glucose 0.5 g/kg i.v.; control 710±37
Procedure: At the end of treatment, the SHHF rats were anesthetized with sodium pentobarbital (50 mg/kg i.p.) after a fasting time of 18 h. The left femoral vein was catheterized to take blood samples for the different dosages. To perform the glucose tolerance test a solution of glucose (0.5 g/kg, i.v.) was administered and the plasma concentrations of glucose were determined after 3, 6, 10, 15, 30 and 45 minutes.
as §1, §2
A glucose solution of 0.5 g/kg was administered via intravenous route. The plasma concentration of glucose was evaluated using a glucometer before injection into animals that had fasted 18 h, and then 3, 6, 10, 15, 30 and 45 min after administration of the glucose (Accu Check Go, Roche Diagnostics, Meylan, France). Area under curve values (AUC) were then determined to compare the groups.

Chain of I1 receptor (Q4G017 whole entry, looked up): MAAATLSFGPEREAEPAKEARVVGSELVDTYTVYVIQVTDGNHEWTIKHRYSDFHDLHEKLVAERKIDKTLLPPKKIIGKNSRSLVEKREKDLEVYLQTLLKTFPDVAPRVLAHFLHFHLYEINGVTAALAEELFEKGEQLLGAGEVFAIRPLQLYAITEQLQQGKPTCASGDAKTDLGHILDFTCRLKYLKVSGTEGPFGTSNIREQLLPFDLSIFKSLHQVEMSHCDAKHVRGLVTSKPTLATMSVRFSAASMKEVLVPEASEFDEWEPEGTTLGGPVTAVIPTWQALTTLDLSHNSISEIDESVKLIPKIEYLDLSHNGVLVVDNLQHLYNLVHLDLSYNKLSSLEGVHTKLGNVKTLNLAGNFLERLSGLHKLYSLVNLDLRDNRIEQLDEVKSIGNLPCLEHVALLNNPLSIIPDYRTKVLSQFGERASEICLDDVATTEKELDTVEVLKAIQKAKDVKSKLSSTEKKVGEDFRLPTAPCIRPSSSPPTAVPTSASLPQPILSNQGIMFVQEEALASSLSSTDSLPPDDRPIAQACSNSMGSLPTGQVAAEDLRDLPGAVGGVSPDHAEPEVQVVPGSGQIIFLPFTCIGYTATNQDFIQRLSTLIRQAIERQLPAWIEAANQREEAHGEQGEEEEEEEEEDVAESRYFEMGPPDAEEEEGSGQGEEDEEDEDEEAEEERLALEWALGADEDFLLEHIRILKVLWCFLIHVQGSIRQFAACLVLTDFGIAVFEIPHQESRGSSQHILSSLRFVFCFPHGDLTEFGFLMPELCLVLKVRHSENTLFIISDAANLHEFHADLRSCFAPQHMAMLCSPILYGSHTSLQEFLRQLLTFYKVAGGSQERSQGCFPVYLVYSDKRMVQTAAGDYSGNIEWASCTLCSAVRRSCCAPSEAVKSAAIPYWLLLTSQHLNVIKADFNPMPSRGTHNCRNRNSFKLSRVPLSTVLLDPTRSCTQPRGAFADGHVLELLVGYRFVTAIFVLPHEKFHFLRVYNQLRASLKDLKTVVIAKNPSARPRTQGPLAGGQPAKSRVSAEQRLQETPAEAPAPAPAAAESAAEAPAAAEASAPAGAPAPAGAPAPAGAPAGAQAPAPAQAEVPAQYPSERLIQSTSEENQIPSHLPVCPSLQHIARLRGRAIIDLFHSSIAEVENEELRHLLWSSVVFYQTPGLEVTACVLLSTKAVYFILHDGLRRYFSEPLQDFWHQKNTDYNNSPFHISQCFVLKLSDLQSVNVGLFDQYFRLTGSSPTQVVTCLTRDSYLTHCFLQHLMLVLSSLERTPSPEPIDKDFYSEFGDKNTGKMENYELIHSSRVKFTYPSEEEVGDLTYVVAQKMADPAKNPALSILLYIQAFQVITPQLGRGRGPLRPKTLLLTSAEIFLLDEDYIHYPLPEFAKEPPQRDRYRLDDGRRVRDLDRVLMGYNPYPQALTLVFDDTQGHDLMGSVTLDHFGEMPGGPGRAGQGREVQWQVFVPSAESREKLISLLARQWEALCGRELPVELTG

## Cc1c(Cl)cccc1NC1=NCC(C)C1.Cl (stereo not drawn) [Compound 1, (3-Chloro-2-methyl-phenyl)-(4-methyl-4,5-dihydro-3H-pyrrol-2-yl)-amine hydrochloride]
[1]; after 9 weeks until end of treatment
  body weight: lower body weight than the controls
[1]; after one week's treatment
  food consumption: below that of the controls
[2]
  secretion of adiponectin: 378±38 ng/ml/mg of proteins
[3]
  fasting glycaemia: not affected
  free fatty acids: not affected
[3]; fasting 18 h, control 3.8±0.18
  total plasma cholesterol: 2.7 ± 0.09 mmol/L
[3]; fasting 18 h, control 4.59±0.23
  plasma triglycerides: 3.8 ± 0.25 mmol/L
[3]; control 5.54±0.14
  plasma adiponectin: 10.6 ± 0.52 µg/mL
[3]; control 46.8±3.7
  fasting plasma insulin: 15.2 ± 2 ng/mL
[3]; control 534±38
  HOMA-IR index: 110±14
[4]
  share of sites with high affinity: 55%
[5]
  AUC after the glucose tolerance test: 556 ± 20 mmol·min/L
